Measured values as given in ChEMBL document CHEMBL3352420, “Discovery of 2-pyridylureas as glucokinase activators” (J Med Chem, 2014).

Experiments:
Hexokinase-4 [1] = molecular target: T1, Hexokinase-4 (Homo sapiens, UniProt P35557); assay: Activation of purified human glucokinase isoform 3 (13 to 466 aa) using 5 mM glucose by spectrophotometry in presence of NAD+ and glucose 6-phosphate dehydrogenase in presence of 4% HSA
T1 sequence (P35557 whole entry): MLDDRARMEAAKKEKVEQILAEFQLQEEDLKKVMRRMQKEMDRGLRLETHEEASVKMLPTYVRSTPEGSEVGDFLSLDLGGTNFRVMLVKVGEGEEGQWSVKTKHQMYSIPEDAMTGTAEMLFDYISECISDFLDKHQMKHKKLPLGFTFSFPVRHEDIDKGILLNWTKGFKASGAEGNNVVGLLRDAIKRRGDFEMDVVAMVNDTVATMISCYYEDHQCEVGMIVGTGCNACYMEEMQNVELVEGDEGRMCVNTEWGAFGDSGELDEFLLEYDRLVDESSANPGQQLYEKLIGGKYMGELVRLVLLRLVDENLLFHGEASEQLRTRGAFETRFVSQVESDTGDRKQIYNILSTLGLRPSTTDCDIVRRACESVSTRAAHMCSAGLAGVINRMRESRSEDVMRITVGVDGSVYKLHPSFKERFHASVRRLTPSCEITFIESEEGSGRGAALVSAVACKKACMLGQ

Hexokinase-4 [2] = molecular target: T1, Hexokinase-4; assay: Activation of purified human glucokinase isoform 3 (13 to 466 aa) using 5 mM glucose by spectrophotometry in presence of NAD+ and glucose 6-phosphate dehydrogenase
[3] = Extraction ratio in human liver microsomes at 1 uM up to 20 mins by LC-MS/MS analysis; assay type: ADME; details: read-out: ERH
[4] = Extraction ratio in mouse liver microsomes at 1 uM up to 20 mins by LC-MS/MS analysis; assay type: ADME; details: read-out: ERH

Row | Structure (SMILES) | EC50 (Hexokinase-4 [1]; read-out: EC50) [µM] | EC50 (Hexokinase-4 [2]) [µM] | EC50 (Hexokinase-4 [1]) | hepatic extraction ratio at 20 min, 1 µM [3] | hepatic extraction ratio at 20 min, 1 µM [4]
1 | CCc1ncccc1Oc1cc(Sc2ccccn2)cnc1NC(C)=O | – | > 50 | Not Active | – | –
2 | CCNC(=O)Nc1ncc(Sc2ccccn2)cc1Oc1cccnc1CC | 0.547 | 0.203 | – | – | –
3 | CCc1ncccc1Oc1cc(Sc2ccccn2)cnc1NC(N)=O | 4.48 | 1.73 | – | – | –
4 | CCc1ncccc1Oc1cc(Sc2ccccn2)cnc1NC(=O)NC(C)C | – | > 50 | Not Active | – | –
5 | CCc1ncccc1Oc1cc(Sc2ccccn2)cnc1NC(=O)NCc1ccccn1 | 3.99 | 1.62 | – | – | –
6 | CCc1ncccc1Oc1cc(Sc2ccccn2)cnc1NC(=O)NCc1cccnc1 | 1.97 | 0.758 | – | – | –
7 | CCc1ncccc1Oc1cc(Sc2ccccn2)cnc1NC(=O)NCc1ccncc1 | 1.16 | 0.952 | – | – | –

Results, then the compound that gave them:

Row | EC50 (Hexokinase-4 [1]; read-out: EC50) [µM] | EC50 (Hexokinase-4 [2]) [µM] | EC50 (Hexokinase-4 [1]) | hepatic extraction ratio at 20 min, 1 µM [3] | hepatic extraction ratio at 20 min, 1 µM [4] | Structure (SMILES)
8 | 41.4 | 13.2 | – | – | – | CCc1ncccc1Oc1cc(Sc2ccccn2)cnc1NC=O
9 | – | > 50 | Not Active | – | – | CCOC(=O)Nc1ncc(Sc2ccccn2)cc1Oc1cccnc1CC
10 | 0.231 | 0.088 | – | 0.75 | 0.85 | CCc1ncccc1Oc1cc(Sc2ccccn2)cnc1NC(=O)NC
11 | 2.84 | 2.12 | – | – | – | CCc1ncccc1Oc1cc(Sc2ccccn2)cnc1NC(=O)NCCO
12 | 5.85 | 0.393 | – | – | – | CCc1ncccc1Oc1cc(Sc2ccccn2)cnc1NC(=O)NCc1ccccc1O
13 | 2.83 | 0.276 | – | – | – | CCc1ncccc1Oc1cc(Sc2ccccn2)cnc1NC(=O)NCc1cccc(O)c1
